According to PubChem BioAssay (NCI):
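Grown in 96-well plates, cells were treated for 48 hours with each compound at five concentrations. Insufficient inhibition: endpoint recorded as highest concentration tested. The concentration for full growth arrest is given as TGI.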

Experiments:
Experiment in all cases: DTP human tumour cell line panel, 48 h
786-0 renal = system: 786-0 renal
A498 renal = system: A498 renal
A549 NSCLC = system: A549 NSCLC
ACHN renal = system: ACHN renal
CAKI-1 renal = system: CAKI-1 renal
CCRF-CEM leukemia = system: CCRF-CEM leukemia
DLD-1 colon = system: DLD-1 colon
DMS 114 small cell lung = system: DMS 114 small cell lung
DMS 273 small cell lung = system: DMS 273 small cell lung
EKVX NSCLC = system: EKVX NSCLC
HCC-2998 colon = system: HCC-2998 colon
HCT-116 colon = system: HCT-116 colon
HCT-15 colon = system: HCT-15 colon
HOP-18 NSCLC = system: HOP-18 NSCLC
HOP-62 NSCLC = system: HOP-62 NSCLC
HOP-92 NSCLC = system: HOP-92 NSCLC
IGROV1 ovarian = system: IGROV1 ovarian
K-562 leukemia = system: K-562 leukemia
KM12 colon = system: KM12 colon
KM20L2 colon = system: KM20L2 colon
LOX IMVI melanoma = system: LOX IMVI melanoma
LXFL 529 NSCLC = system: LXFL 529 NSCLC
M14 melanoma = system: M14 melanoma
MALME-3M melanoma = system: MALME-3M melanoma
MOLT-4 leukemia = system: MOLT-4 leukemia
NCI-H226 lung = system: NCI-H226 lung
NCI-H23 lung = system: NCI-H23 lung
NCI-H460 lung = system: NCI-H460 lung
NCI-H522 lung = system: NCI-H522 lung
OVCAR-3 ovarian = system: OVCAR-3 ovarian
OVCAR-4 ovarian = system: OVCAR-4 ovarian
OVCAR-5 ovarian = system: OVCAR-5 ovarian
OVCAR-8 ovarian = system: OVCAR-8 ovarian
RPMI-8226 leukemia = system: RPMI-8226 leukemia
RXF 393 renal = system: RXF 393 renal
SF-268 CNS = system: SF-268 CNS
SF-295 CNS = system: SF-295 CNS
SF-539 CNS = system: SF-539 CNS
SK-MEL-2 melanoma = system: SK-MEL-2 melanoma
SK-MEL-28 melanoma = system: SK-MEL-28 melanoma
SK-MEL-5 melanoma = system: SK-MEL-5 melanoma
SK-OV-3 ovarian = system: SK-OV-3 ovarian
SN12C renal = system: SN12C renal
SNB-19 CNS = system: SNB-19 CNS
SNB-78 CNS = system: SNB-78 CNS
SR leukemia = system: SR leukemia
SW-620 colon = system: SW-620 colon
TK-10 renal = system: TK-10 renal
U251 CNS = system: U251 CNS
UACC-257 melanoma = system: UACC-257 melanoma
UACC-62 melanoma = system: UACC-62 melanoma
UO-31 renal = system: UO-31 renal
XF 498 CNS = system: XF 498 CNS
COLO 205 colon = system: COLO 205 colon
HL-60(TB) leukemia = system: HL-60(TB) leukemia
HT29 colon = system: HT29 colon
M19-MEL melanoma = system: M19-MEL melanoma
SNB-75 CNS = system: SNB-75 CNS

Compound: N#Cc1c2ccccc2c(Cc2ccc3c(c2)OCCOCCOCCOCCOCCO3)c2ccccc12
- TGI (786-0 renal): 25.4 µM
- TGI (A498 renal): 27.6 µM
- TGI (A549 NSCLC): 16.7 µM
- TGI (ACHN renal): 21.7 µM
- TGI (CAKI-1 renal): 22.2 µM
- TGI (CCRF-CEM leukemia): > 100 µM
- TGI (DLD-1 colon): 22 µM
- TGI (DMS 114 small cell lung): 23.9 µM
- TGI (DMS 273 small cell lung): 17.8 µM
- TGI (EKVX NSCLC): 35.9 µM
- TGI (HCC-2998 colon): 24.7 µM
- TGI (HCT-116 colon): 21.3 µM
- TGI (HCT-15 colon): 19.2 µM
- TGI (HOP-18 NSCLC): 21.8 µM
- TGI (HOP-62 NSCLC): 23.6 µM
- TGI (HOP-92 NSCLC): 12.2 µM
- TGI (IGROV1 ovarian): 19.5 µM
- TGI (K-562 leukemia): > 100 µM
- TGI (KM12 colon): 17.9 µM
- TGI (KM20L2 colon): 21.7 µM
- TGI (LOX IMVI melanoma): 22.6 µM
- TGI (LXFL 529 NSCLC): 30.4 µM
- TGI (M14 melanoma): 18 µM
- TGI (MALME-3M melanoma): 20.3 µM
- TGI (MOLT-4 leukemia): > 100 µM
- TGI (NCI-H226 lung): 24.3 µM
- TGI (NCI-H23 lung): 25.3 µM
- TGI (NCI-H460 lung): 25.1 µM
- TGI (NCI-H522 lung): 31.9 µM
- TGI (OVCAR-3 ovarian): 16.4 µM
- TGI (OVCAR-4 ovarian): 17.4 µM
- TGI (OVCAR-5 ovarian): 30.1 µM
- TGI (OVCAR-8 ovarian): 18.3 µM
- TGI (RPMI-8226 leukemia): > 100 µM
- TGI (RXF 393 renal): 7.94 µM
- TGI (SF-268 CNS): 21.1 µM
- TGI (SF-295 CNS): 21.3 µM
- TGI (SF-539 CNS): 29.7 µM
- TGI (SK-MEL-2 melanoma): 19.9 µM
- TGI (SK-MEL-28 melanoma): 19.4 µM
- TGI (SK-MEL-5 melanoma): 17.5 µM
- TGI (SK-OV-3 ovarian): 27.9 µM
- TGI (SN12C renal): 22.8 µM
- TGI (SNB-19 CNS): 24.5 µM
- TGI (SNB-78 CNS): 31.9 µM
- TGI (SR leukemia): > 100 µM
- TGI (SW-620 colon): 32.1 µM
- TGI (TK-10 renal): 19.3 µM
- TGI (U251 CNS): 26.2 µM
- TGI (UACC-257 melanoma): 22.5 µM
- TGI (UACC-62 melanoma): 19.8 µM
- TGI (UO-31 renal): 15.4 µM
- TGI (XF 498 CNS): 23.5 µM

Compound: COc1ccc2c(c1)CCc1c-2[nH]c2cc3c(cc2c1=O)OCO3
- TGI (786-0 renal): > 100 µM
- TGI (A549 NSCLC): > 100 µM
- TGI (ACHN renal): > 100 µM
- TGI (CAKI-1 renal): > 100 µM
- TGI (CCRF-CEM leukemia): > 100 µM
- TGI (COLO 205 colon): > 100 µM
- TGI (DLD-1 colon): > 100 µM
- TGI (DMS 273 small cell lung): > 100 µM
- TGI (EKVX NSCLC): > 100 µM
- TGI (HCC-2998 colon): > 100 µM
- TGI (HCT-15 colon): > 100 µM
- TGI (HL-60(TB) leukemia): > 100 µM
- TGI (HOP-18 NSCLC): > 100 µM
- TGI (HOP-62 NSCLC): > 100 µM
- TGI (HOP-92 NSCLC): > 100 µM
- TGI (HT29 colon): > 100 µM
- TGI (IGROV1 ovarian): > 100 µM
- TGI (K-562 leukemia): > 100 µM
- TGI (KM12 colon): > 100 µM
- TGI (LOX IMVI melanoma): > 100 µM
- TGI (LXFL 529 NSCLC): > 100 µM
- TGI (M14 melanoma): > 100 µM
- TGI (M19-MEL melanoma): > 100 µM
- TGI (MALME-3M melanoma): > 100 µM
- TGI (MOLT-4 leukemia): > 100 µM
- TGI (NCI-H23 lung): > 100 µM
- TGI (NCI-H460 lung): > 100 µM
- TGI (NCI-H522 lung): > 100 µM
- TGI (OVCAR-4 ovarian): > 100 µM
- TGI (OVCAR-8 ovarian): > 100 µM
- TGI (RPMI-8226 leukemia): > 100 µM
- TGI (SF-539 CNS): > 100 µM
- TGI (SK-MEL-2 melanoma): > 100 µM
- TGI (SK-MEL-28 melanoma): > 100 µM
- TGI (SK-OV-3 ovarian): > 100 µM
- TGI (SN12C renal): > 100 µM
- TGI (SNB-19 CNS): > 100 µM
- TGI (SNB-75 CNS): > 100 µM
- TGI (SNB-78 CNS): > 100 µM
- TGI (SR leukemia): > 100 µM
- TGI (SW-620 colon): > 100 µM
- TGI (TK-10 renal): > 100 µM
- TGI (U251 CNS): > 100 µM
- TGI (UACC-62 melanoma): > 100 µM
- TGI (UO-31 renal): > 100 µM
- TGI (XF 498 CNS): > 100 µM
